Like-named read-outs stand apart in the source and are kept apart here.
Key:
Caco-2 = assay: MTS cytotoxicity assay, Caco-2; format: cell-based
Method: (§1) Cultivation of the cancer cell lines MCF-7, Hep3B, HepG2, and Caco-2 HeLa was conducted in RPMI 1640 medium, whereas LX-2, B16-F1, and HEK-293T cells were grown in DMEM medium. These cells were incubated at 37 °C in a 5% CO2 atmosphere within a humid setting. In a 96-well plate, 1000 cells were seeded in each well. Following a 24 h incubation, they were exposed to various concentrations of Ia-IIe compounds (300, 100, 50, and 10 µM) for 72 h. The Cell-Tilter 96® (Promega Corporation, Madison, WI, USA) Aqueous One Solution Cell Proliferation (MTS) bioassay was utilized to determine the cell viability post-culture. For this assay, 90 µL of medium and 10 µL of MTS solution were added to every well, and the plates were then placed in a 37 °C environment for 2 to 4 h. The absorbance was subsequently assessed at a wavelength of 490 nm using a UV–Vis spectrophotometer.

Hep3B = assay: MTS cytotoxicity assay, Hep3B; format: cell-based; details: 72 h
Method: as §1

Hek293t normal cell line = assay: MTS cytotoxicity assay, Hek293t normal cell line; format: cell-based; details: 72 h
Method: as §1

MCF-7 = assay: MTS cytotoxicity assay, MCF-7; format: cell-based
Method: as §1

HepG2 = assay: MTS cytotoxicity assay, HepG2; format: cell-based
Method: as §1

LX-2 = assay: MTS cytotoxicity assay, LX-2; format: cell-based
Method: as §1

HeLa = assay: MTS cytotoxicity assay, HeLa; format: cell-based; details: 72 h
Method: as §1

α-amylase [1] = target: T1, α-amylase (Homo sapiens, UniProt P04746); details: control compound IIe; cited from earlier work
T1 sequence (P04746 16-511): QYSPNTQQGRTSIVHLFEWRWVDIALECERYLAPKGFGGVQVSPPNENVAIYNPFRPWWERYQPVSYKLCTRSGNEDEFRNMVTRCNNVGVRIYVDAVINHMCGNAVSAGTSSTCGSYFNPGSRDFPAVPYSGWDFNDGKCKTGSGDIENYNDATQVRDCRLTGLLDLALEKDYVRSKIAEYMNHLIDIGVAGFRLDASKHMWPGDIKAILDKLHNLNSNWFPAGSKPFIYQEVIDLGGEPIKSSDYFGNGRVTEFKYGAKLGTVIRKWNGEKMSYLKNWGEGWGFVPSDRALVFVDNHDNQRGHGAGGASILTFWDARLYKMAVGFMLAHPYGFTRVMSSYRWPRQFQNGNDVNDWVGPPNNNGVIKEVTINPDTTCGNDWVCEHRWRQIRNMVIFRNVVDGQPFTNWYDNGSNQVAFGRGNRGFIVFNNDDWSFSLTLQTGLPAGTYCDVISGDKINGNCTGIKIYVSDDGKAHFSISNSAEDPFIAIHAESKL

α-amylase [2] = target: T1, α-amylase; assay: α-amylase inhibition, DNSA method; format: biochemical
Method: The experiment was conducted using the 3,5-dinitrosalicylic acid (DNSA) approach. Buffer solutions were prepared, containing 20 mm of both sodium phosphate monobasic and sodium phosphate dibasic, and were augmented with 6.7 mm sodium chloride (NaH2PO4 and Na2HPO4, each at 6.7 mm NaCl, pH 6.9). A beaker was filled partially with NaH2PO4 and NaCl solution and stirred magnetically, and the pH was meticulously calibrated using a specialized electrode. The desired pH of 6.9 was achieved by adding more NaH2PO4 and NaCl to the solution.
The stock solution consisted of synthesized molecules at a 1 mg/mL concentration, harmoniously blended with no less than 10% DMSO in a 1:100 dilution. This mixture was then united with a buffer composed of Na2HPO4/NaH2PO4 (0.02 M) and NaCl (0.006 M), maintaining a pH of 6.9. From this, working solutions were created at concentrations ranging from 0.1 to 100 µM. These comprised 0.01, 0.1, 0.5, 1, and 5 mL of the synthesized molecules diluted with the pH-adjusted buffer and brought to a total volume of 10 mL using VF (10 mL).
This transformative amalgam journeyed to attain a final volume of 100 mL, seamlessly infused with the phosphate buffer discussed earlier, harmonizing within a 100 mL volumetric flask (VF). Meanwhile, the starch solution, poised at a concentration of 1% (w/v), saw the suspension of 1000 mg of starch in 100 mL of distilled water, orchestrated with finesse within a 100 mL VF. This aqueous symphony unfolded in a temperate embrace of 37 °C within a water bath, occasionally stirring to deter any starch precipitation inklings.
The overture of this reaction was orchestrated by DNSA—a reactive virtuoso that commences its dance upon encountering reducing sugars, conjuring forth 3-amino-5-nitro salicylic acid, a spectral charmer at the wavelength of around 540 nm. The creation of DNSA itself, an artful process, saw the dissolution of 12 g of sodium potassium tartrate tetrahydrate within 8.0 mL of 2 M NaOH, further entwined with 20 mL of the enchanted 96 mm 3.5-dinitrosalicylic acid solution. Thus, the stage was set for this chemical ballet, where reactions waltzed, and absorbance painted a canvas of molecular magic. […]
The climax of this reaction narrative was unveiled as 200 μL of DNSA entered the stage, promptly followed by a vigorous boiling performance for 10 min, orchestrated at the harmonious temperature range of 85 to 90 °C. […] In a final crescendo, the resounding absorbance at 540 nm resounded as it was masterfully measured utilizing the UV-Visible spectrophotometer.
In order to produce the initial state, the blank canvas was used to substitute the synthesized chemicals, adding 200 μL of buffer. […] This captivating performance culminated with quantifying enzyme inhibitory activity expressed as a percentage of inhibition. […]

α-amylase [3] = target: T1, α-amylase; details: cited from earlier work
[4] = tested on: streptozotocin-induced diabetic mice; assay: In vivo hypoglycemic effect in STZ-induced diabetic mice; details: five daily i.p. doses of 10 mg/kg, fasting, 252.2 mg/dL before treatment, untreated diabetes group 274.25 mg/dL
From the text: The mice-related investigations were meticulously conducted, adhering strictly to the protocols outlined by the Association for Assessment and Accreditation of Laboratory Animal Care International. The ethical underpinning of these experiments was formally acknowledged, having secured the approval of the Institutional Review Board of the Animal House and Use Committee at An-Najah National University (approval number: Med. June. 2023/9).
The study’s protagonists consisted of 18 healthy adult mice gracing the stage with a weight symphony ranging from 17 to 27 g. These cherished participants were thoughtfully accommodated in groups of three within the hospitable confines of the animal facility. In an overture of preparation, the mice were granted 7 days to acquaint themselves with the ambiance of the animal facility, enveloped within the embrace of controlled temperature conditions, a harmonious 25 ± 2 °C.
In the experiment, the mice were subjected to diabetes induction via an intraperitoneal (i.p.) injection of streptozotocin (STZ). […] In order to ascertain the induction of diabetes, the fasting blood glucose levels of the mice were assessed on the fourth day after the injection of STZ. […]
In this research, the fasting blood glucose levels for all groups were measured on the first day before the induction of diabetes using a streptozotocin (STZ) injection. […]

cancer cell lines = assay: MTS cytotoxicity assay, range over cell lines; format: cell-based
Method: as §1

Compound | IC50 (Caco-2; Homo sapiens, Caco-2, 72 h) | IC50 (Hep3B; Homo sapiens, Hep3B) | IC50 (Hek293t normal cell line; Homo sapiens, HEK-293T) | IC50 (MCF-7; Homo sapiens, MCF7, 72 h) | IC50 (HepG2; Homo sapiens, HepG2, 72 h) | IC50 (LX-2; Homo sapiens, LX-2, 72 h) | IC50 (HeLa; Homo sapiens, HeLa) | other results
COc1cc(NC(=O)c2ccc3c(c2)OCO3)cc(OC)c1 [IIe, N-(3,5-dimethoxyphenyl)benzo[d][1,3]dioxole-5-carboxamide] | > 300 µM | > 300 µM | > 300 µM | > 300 µM | > 300 µM | 183 ± 2 µM | > 300 µM | IC50 (α-amylase [1]): 15 ± 3.52 µM
COc1cc(NC(=O)Cc2ccc3c(c2)OCO3)c(OC)cc1Cl [Ia, 2-(benzo[d][1,3]dioxol-5-yl)-N-(4-chloro-2,5-dimethoxyphenyl)acetamide] | > 300 µM | 197 ± 1.99 µM | > 300 µM | 124 ± 2.73 µM | 169 ± 2.16 µM | 70.6 ± 2.45 µM | 43.6 ± 2.97 µM | IC50 (α-amylase [2]): 16.8 ± 1.55 µM
COc1cc(OC)cc(C(=O)c2ccc3c(c2)OCO3)c1 [St.3] | – | – | – | – | – | – | – | IC50 (α-amylase [3]; earlier work of the same team): 15 µM
N#C/C=C1/C=C(c2ccc(Br)cc2)N=C2Sc3ccccc3N21 [St.1] | – | – | – | – | – | – | – | IC50 (α-amylase [3]): 15.3 µM
O=C(Nc1ccccc1)c1ccc2c(c1)OCO2 [IIa, N-phenylbenzo[d][1,3]dioxole-5-carboxamide] | > 300 µM | > 300 µM | > 150 µM | > 300 µM | > 300 µM | > 300 µM | > 300 µM | IC50 (Hek293t normal cell line): > 300 µM; IC50 (α-amylase [2]): 0.85 ± 0.18 µM
Oc1cc(O)cc(Oc2c(O)cc(Oc3c(O)cc(O)cc3O)cc2O)c1 [DDBT, 2-(4-(3,5-dihydroxyphenoxy)-3,5-dihydroxyphenoxy) benzene-1,3,5-triol] | – | – | – | – | – | – | – | IC50 (α-amylase [3]): 8.5 µM
O=C(Nc1cccc(C(F)(F)F)c1)c1ccc2c(c1)OCO2 [IIc, N-(3-(trifluoromethyl)phenyl)benzo[d][1,3]dioxole-5-carboxamide] | > 300 µM | > 300 µM | > 150 µM | > 300 µM | > 300 µM | > 300 µM | > 300 µM | IC50 (Hek293t normal cell line): 156 ± 2.98 µM; blood glucose level after treatment [4]: 173.8 mg/dL
COc1cc(NC(=O)c2ccc3c(c2)OCO3)cc(OC)c1OC [IIb, N-(3,4,5-trimethoxyphenyl)benzo[d][1,3]dioxole-5-carboxamide] | > 300 µM | > 300 µM | > 300 µM | > 300 µM | > 300 µM | 96.6 ± 2.7 µM | > 300 µM | –
COC(=O)Cc1cc2c(cc1C(=O)c1ccccc1Br)OCO2 [St.2] | – | – | – | – | – | – | – | IC50 (α-amylase [3]; earlier work of the same team): 6.81 µM
COc1ccccc1Oc1ccc(NC(=O)c2ccc3c(c2)OCO3)cc1 [IId, N-(4-(2-methoxyphenoxy)phenyl)benzo[d][1,3]dioxole-5-carboxamide] | > 300 µM | 65.2 ± 2.53 µM | > 300 µM | 55.8 ± 2.51 µM | 55.3 ± 2.72 µM | 31.4 ± 2.71 µM | 26.6 ± 2.41 µM | IC50 (cancer cell lines; Homo sapiens, Caco-2, four cancer cell lines / all cell lines except Caco-2): 26 to 65 µM; IC50 (cancer cell lines; four cancer cell lines / all cell lines except Caco-2): 26.6 to 65.2 µM; IC50 (α-amylase [2]): 5.76 ± 1.92 µM
COc1ccc(OC)c(NC(=O)Cc2ccc3c(c2)OCO3)c1 [Ic, 2-(benzo[d][1,3]dioxol-5-yl)-N-(2,5-dimethoxyphenyl)acetamide] | > 300 µM | > 300 µM | 207 ± 2.59 µM | > 300 µM | > 300 µM | 209 ± 2.2 µM | > 300 µM | IC50 (α-amylase [2]): 16.4 ± 1.58 µM
O=C(Cc1ccc2c(c1)OCO2)Nc1ccccc1 [Ib, 2-(benzo[d][1,3]dioxol-5-yl)-N-phenylacetamide] | > 300 µM | > 300 µM | 269.2 ± 1.73 µM | > 300 µM | > 300 µM | 280.6 ± 2.33 µM | > 300 µM | –
O=c1[nH]cc(F)c(=O)[nH]1 [Compound 5-FU, reference compound] | – | – | – | – | – | – | – | IC50 (Caco-2; 72 h): 4.75 ± 1.71 µM; IC50 (Hep3B): 5.11 ± 1.67 µM; IC50 (MCF-7; 72 h): 6.51 ± 1.82 µM; IC50 (HepG2; 72 h): 4.07 ± 1.42 µM; IC50 (LX-2; 72 h): 0.178 ± 0.11 µM; IC50 (HeLa): 7.79 ± 1.6 µM
COc1cccc2c1C(=O)c1c(O)c3c(c(O)c1C2=O)C[C@@](O)(C(=O)CO)C[C@@H]3O[C@H]1C[C@H](N)[C@H](O)[C@H](C)O1 [DOX, reference compound] | – | – | – | – | – | – | – | IC50 (Caco-2; 72 h): 0.024 ± 0.001 µM; IC50 (Hep3B): 0.025 ± 0.005 µM; IC50 (Hek293t normal cell line): 0.038 ± 0.02 µM; IC50 (MCF-7; 72 h): 0.053 ± 0.009 µM; IC50 (HepG2; 72 h): < 0.01 µM; IC50 (LX-2; 72 h): 0.21 ± 0.12 µM; IC50 (HeLa): < 0.01 µM
